{"source": "patent US20060193895A1", "about": "“Additive for food and beverage, pharmaceutical composition, GLUT4 translocator, and method for translocating GLUT4” (Use-Techno Corporation, priority 2005, published 2006)", "type_in_all_cases": "in vivo", "key": {"KK-Ay mice [1]": {"system": "KK-Ay mice", "assay": "Blood sugar level in KK-Ay mouse with administration of corosolic acid", "details": "oral administration", "description": "KK-Ay mice (CLEA JAPAN, INC.) which are the model animals for Type II diabetes were employed for test animals. These KK-Ay mice aged 6 to 10 weeks, having 300 mg/dL of blood sugar level. Corosolic acid which was extracted from Banaba leaves and purified was forcefully administrated to these KK-Ay mice using an injection syringe and an oral sound for mouse. Blood samples were collected at 2, 4 and 7 hours after the administration using the orbital vein blood sampling method, and the blood sugar levels were determined by the glucose oxidase method. Blood sugar levels were measured on four KK-Ay mice. The measured values were used to calculate an average, which was evaluated by the Student's t-test. […] FIG. 1 describes the blood sugar level data as average value± standard error. The p-value of 0.05 or below in the Student's t-test was rated to be significant (the significance is shown with * mark in the Figure: the same is applied hereinafter)."}, "[2]": {"system": "glucose transporter type 4 (GLUT4)", "assay": "Effect of corosolic acid on GLUT4 in mouse skeletal muscle (western blotting of PM and LDM fractions)", "details": "KK-Ay mice, after 4 hours from the administration", "description": "The intake of sugar into cells is conducted by a carrier protein in the transporting system on cell membrane, called glucose transporter (GLUT). Muscle has glucose transporter type 1 (GLUT1) and glucose transporter type 4 (GLUT4). […] This change in location within a cell is called GLUT4 translocation. It is speculated that significant increase of glucose in muscle and fat tissues is mainly due to the translocation of GLUT4. In view of this point, the effect of corosolic acid on GLUT4 was studied. First, the low density microsome (LDM) fraction and the plasma membrane (PM) fraction were prepared using the sucrose concentration gradient in accordance with the method of Klip et al. (FEBS Lett., 224, 224-230 (1987), Biochem. Biophys. Res. Commum., 172, 728-736 (1990)). On the KK-Ay mouse groups with or without corosolic acid administrated, the relative quantities of GLUT4 in the PM fraction and the LDM fraction were determined after 4 hours from the administration using the western blotting analysis."}, "ddY mice": {"system": "ddY mice", "assay": "Blood sugar level of ddY mouse by administration of corosolic acid", "details": "ddY normal mice, oral administration, 2, 4, and 7 hours after the administration", "description": "KK-Ay mice (CLEA JAPAN, INC.) which are the model animals for Type II diabetes were employed for test animals. These KK-Ay mice aged 6 to 10 weeks, having 300 mg/dL of blood sugar level. Corosolic acid which was extracted from Banaba leaves and purified was forcefully administrated to these KK-Ay mice using an injection syringe and an oral sound for mouse. Blood samples were collected at 2, 4 and 7 hours after the administration using the orbital vein blood sampling method, and the blood sugar levels were determined by the glucose oxidase method. Blood sugar levels were measured on four KK-Ay mice. The measured values were used to calculate an average, which was evaluated by the Student's t-test. […] FIG. 1 describes the blood sugar level data as average value± standard error. The p-value of 0.05 or below in the Student's t-test was rated to be significant (the significance is shown with * mark in the Figure: the same is applied hereinafter). Blood sugar level was determined by the same procedure as described in the above “Blood sugar level in KK-Ay mouse by administration of corosolic acid”, except that the ddY mice which are the normal mice (Japan SLC, Inc.) were employed instead of the KK-Ay mice which are the model animals for Type II diabetes."}, "KK-Ay mice [3]": {"system": "KK-Ay mice", "assay": "Serum insulin value in KK-Ay mouse with administration of corosolic acid", "details": "after 4 hours from the administration, vs group without corosolic acid", "description": "On the KK-Ay mouse groups with or without corosolic acid administrated in “Blood sugar level in KK-Ay mouse by administration of corosolic acid” described above, the serum insulin values were measured after 4 hours from the administration. The serum insulin values were measured by the enzyme 2-antibody method. The measured data were rated by the Student's t-test to determine whether or not they had significant differences according to the same criterion as above."}}, "data": [{"smiles": "C[C@H]1[C@H](C)CC[C@]2(C(=O)O)CC[C@]3(C)C(=CC[C@@H]4[C@@]5(C)C[C@@H](O)[C@H](O)C(C)(C)[C@@H]5CC[C@]43C)[C@H]12", "note": "[corosolic acid]", "values": [{"measurement": "blood sugar level", "setting": "KK-Ay mice [1]; after 4 hours from the administration", "result": "about 280 mg/dL"}, {"measurement": "change in blood sugar level", "setting": "KK-Ay mice [1]; during 4 hours after the administration, vs control, Student's t-test", "result": "significantly decreases"}, {"measurement": "relative quantity of GLUT4 in the LDM fraction", "setting": "[2]", "result": "decreased the GLUT4 of low density microsome"}, {"measurement": "relative quantity of GLUT4 in the PM fraction", "setting": "[2]", "result": "increased it in the plasma membrane fraction"}, {"measurement": "change in blood sugar level", "setting": "ddY mice", "result": "No significant difference"}, {"measurement": "serum insulin value", "setting": "KK-Ay mice [3]", "result": "no significant difference"}]}]}
